The source of these data is patent US20240408086A1, “USE OF LUVADAXISTAT FOR THE TREATMENT OF COGNITIVE IMPAIRMENT” (TAKEDA PHARMACEUTICAL COMPANY LIMITED, priority 2021, published 2024).

The subject of series [1] is patients with schizophrenia. Kind of series: Phase 1b crossover study: safety and tolerability. It is filed as in vivo, human. The conditions noted are these: 50 or 500 mg for 8 consecutive days. From the text:
NCT03359785 was a randomized, double-blind, placebo-controlled cross-over Phase 1b clinical trial in schizophrenia patients at a single site to evaluate PD effects, safety, tolerability, and pharmacokinetics of multiple oral doses of Compound (I). The objective of the study was to assess pharmacodynamic (PD) biomarkers of Compound (I) on measures related to cerebellar circuitry function and NMDA pharmacology that are known to be affected in schizophrenia.
Safety objectives included the incidence of treatment-emergent adverse events (TEAEs), laboratory tests, vital signs, and electrocardiogram (ECG) assessments.

A further series deals with Rat. Kind of series: Attention set-shifting task (ASST) (executive function). The series is classed as in vivo. More on the design: key: a + sign means efficacious; a − sign means not efficacious. The conditions noted are these: for Attention set-shifting task (ASST) (executive function): 14-Day Once Daily (QD); for ASST (executive function): Single Dose. From the text: (§1) In Table 1, a + sign means efficacious, a − sign means not efficacious, and an empty cell indicates a dose was not tested.

In a further series the test system is Mouse. Briefly: Eyeblink conditioning (ataxia and schizophrenia), 10-day QD. The series is classed as in vivo. More on the design: key: a + sign means efficacious; a − sign means not efficacious. The conditions noted are these: 10-Day Once Daily (QD).
Text: as §1

For the compound `O=c1[nH]nc(CCc2ccc(C(F)(F)F)cc2)cc1O` [Compound (I), luvadaxistat], the “Deaths, serious adverse events, TEAEs leading to discontinuation of study drug” value in series [1] is “no deaths, serious adverse events (AEs), or TEAEs leading to discontinuation of study drug”. Moreover, in series [1], the “Tolerability in the Phase 1b study” value is recorded as “generally well tolerated”. Moreover, the “Attention set-shifting task (ASST) (executive function)” value in the series on Rat (0.1 mg/kg), in the series on Rat (1 mg/kg) and with Rat (10 mg/kg) was “+” in each case. Moreover, the “ASST (executive function)” value with Rat (3 mg/kg), in the series with Rat (10 mg/kg) and with Rat (30 mg/kg) was “+” in each case. Also, the “Eyeblink conditioning (ataxia and schizophrenia)” value in the series with Mouse (0.1 mg/kg) and with Mouse (1 mg/kg) was “+” each time.
